Measured values as given in US7230023B2, “Water-soluble triazole fungicide” (Sankyo Company, Limited, priority 2001, dated 2007).
Converted amounts (≈) assume the structure as drawn.

Legend:
[1] = test system: Candida albicans ATCC 64550; assay: Antifungal activity against Candida, MIC by broth microdilution; type: cell-based; details: ATCC64550, RPMI1640 pH 7.0, 35° C., 24-72 hours, at least 80% growth inhibition, read-out: MIC values C.a. (1)
Protocol: (§1) The antifungal activities of compound A were assessed according to the minimum inhibitory concentrations (MICs) which were measured by the methods described below:
(§2) Determination of antifungal activity against Candida: The MICs were determined by the broth microdilution method. Test compound was dissolved in dimethyl sulfoxide (DMSO). Serial two-fold dilution of the test compound was performed with DMSO, and then the final dilution was performed with RPMI1640 medium (product of Dainippon Pharmaceutical Co., Ltd.) which was buffered to pH 7.0 with 0.165M 3-(morpholino)propanesulfonic acid (MOPS). […] Colonies of the test fungi were suspended in physiological saline followed by adjustment to 5.0×10^2 to 2.5×10^3 cells/ml with RPMI1640 medium which was buffered to pH 7.0 with 0.165M MOPS. 100 μl of the fungal suspension and 100 μl of each diluted test compound solution were mixed in each well of microtitre plates, before incubating at 35° C. for 24-72 hours. […] The MICs were defined as the lowest compound concentrations causing at least 80% growth inhibition when compared with the control.

[2] = test system: Candida albicans TIMM 3165; assay: as above; type: cell-based; details: TIMM3165, RPMI1640 pH 7.0, 35° C., 24-72 hours, at least 80% growth inhibition, read-out: MIC values C.a. (3)
Protocol: as §1, §2

[3] = test system: Candida albicans TIMM 3164; assay: as above; type: cell-based; details: TIMM3164, RPMI1640 pH 7.0, 35° C., 24-72 hours, at least 80% growth inhibition, read-out: MIC values C.a. (2)
Protocol: as §1, §2

[4] = test system: Aspergillus fumigatus SANK 10569; assay: Antifungal activity against Aspergillus, MIC by broth microdilution; type: cell-based; details: SANK10569, RPMI1640 pH 7.0, 30° C., 24-72 hours, at least 80% growth inhibition, read-out: MIC values A.f.
Protocol: as §1
as §2, with “Aspergillus:” for “Candida: The”, “DMSO.” for “dimethyl sulfoxide (DMSO).”, “MOPS.” for “3-(morpholino)propanesulfonic acid (MOPS).”, “about 1.0×10^4” for “5.0×10^2 to 2.5×10^3”, “30°” for “35°”

[5] = test system: Cryptococcus neoformans TIMM 0362; assay: Antifungal activity against Cryptococcus neoformans, MIC by broth microdilution; type: cell-based; details: TIMM0362, yeast nitrogen base medium pH 7.0, 35° C., 48-72 hours, at least 50% growth inhibition, absorbance at 485 nm, read-out: MIC values C.n.
Protocol: as §1
Determination of antifungal activity against Cryptococcus neoformans: MICs were determined by the broth microdilution method. Test compound was dissolved in DMSO. Serial two-fold dilution of the test compound was performed with DMSO, and the final dilution was performed with yeast nitrogen base medium (product of Difco Laboratories) buffered to pH 7.0 with 0.165M MOPS. […] Colonies of the test fungi were suspended in physiological saline followed by adjustment to 5.0×10^3 to 2.5×10^4 cells/ml with yeast nitrogen base medium buffered to pH 7.0 with 0.165M MOPS. 100 μl of the fungal suspension and 100 μl of each diluted test compound solution were mixed in each well of microtitre plates, before incubating at 35° C. for 48-72 hours. […] The MICs were defined as the lowest compound concentrations causing at least 50% growth inhibition when compared with the control as measured by light absorbance at 485 nm.

[6] = test system: human liver microsome preparation; assay: Test to confirm formation of active substance: incubation with human liver microsome preparation, HPLC; type: in vitro ADME; details: human liver microsome preparation 0.5 mg protein/ml, initial concentration 1 μM, 37° C.
Protocol: The test compound was dissolved in a human liver microsome preparation (0.5 mg protein/ml, GENTEST Corporation) at an intial concentration of 1 μM and the mixture was incubated at 37° C.
A small aliquot of the sample was collected at certain time intervals, and the rate of persistence of the original compound and the rate of formation of compound A, the active substance with the chemical structure shown below, were determined by HPLC.
The results of incubating the compound of Example 5 (the disodium salt of example number 5-16) with the human liver microsome preparation are shown in FIG. 1.

MIC [1]	MIC [2]	MIC [3]	MIC [4]	MIC [5]	rate of formation of compound A (active substance) ([6]; after incubation for 30 min)	Structure (SMILES)	rate of persistence of the original compound [6]
0.25 µg/mL (≈ 0.461 µM)	0.063 µg/mL (≈ 0.116 µM)	≤ 8 ng/mL	0.031 µg/mL (≈ 0.0571 µM)	≤ 8 ng/mL		C[C@@H](S[C@H]1CO[C@H](/C=C/C=C/c2ccc(C#N)cc2F)OC1)[C@](O)(Cn1cncn1)c1ccc(F)cc1F [Compound A]	
					completely converted to compound A	C[C@@H](S[C@H]1CO[C@H](/C=C/C=C/c2ccc(C#N)cc2F)OC1)[C@@](Cn1cncn1)(OC(=O)c1cc(C#N)ccc1COP(=O)([O-])[O-])c1ccc(F)cc1F.[Na+].[Na+] [Example 5, Disodium 4-cyano-2-[[(1R,2R)-2-[[trans-2-[(1E,3E)-4-(4-cyano-2-fluorophenyl)-1,3-butadienyl]-1,3-dioxan-5-yl]thio]-1-(2,4-difluorophenyl)-1-[(1H-1,2,4-triazol-1-yl)methyl]propoxy]carbonyl]benzyl phosphate]	diminished immediately after the incubation started
